Data as given in patent US20050124699A1, “Drugs for treating or preventing disorders of corneal and/or conjunctival epithelial cells” (WAKAMOTO PHARMACEUTICAL CO., LTD., priority 2002, published 2005).
Where two headings read alike, the source gives them in different places.

Columns and labels:
[1] = system: Chang's human conjunctival epithelial cell strain (CCL-20.2); format: cell-based
Method: (§1) Cells Used: The corneal cell used herein was SV40 immortalized human corneal epithelial cell strain (HCEC) (Araki-Sasaki et al., IOVS, 1995, 36:614-621) and the conjunctival cell used herein was Chang's human conjunctival epithelial cell strain (CCL-20.2) (ATC CCCL-20.2).
(§2) Experiments: The cells were cultivated to a density of 5×10^4 cells/mL in a growth medium containing 10% serum, inoculated in a 96-well multiplate in an amount of 100 μL/well and cultivated at 37° C. overnight. After the cultivation thereof to a confluent of 30 to 50%, the culture medium was dissolved in a fresh culture medium, followed by the addition of stepwise diluted MS and further diclofenac sodium and the subsequent cultivation at 37° C. for 24 hours. After the cultivation, each well was washed, followed by the addition of a fresh culture medium (100 μL/well) and WST-8 (10 μL/well; Cell Counting Kit-8 available from DOJIN Chemical Co., Ltd.), subsequent cultivation for 1.5 hour and the determination of the absorbance at 450-660 nm to thus calculate the viable cell count.
(§3) Method for Evaluating Toxicity: A test group free of any candidate compound was used as a negative control, the absorbance thereof was assumed to be 100% and a dose-correlation curve was prepared, which was expressed as the cell survival rates as a function of the concentration of each test substance.

[2] = system: SV40 immortalized human corneal epithelial cell strain (HCEC)
Method: as §1, §2, §3

corneal epithelial cells [3] = settings: cited from earlier work; for effect on healing of the damaged area of the epithelium: addition to the monolayer culture
corneal epithelial cells [4] = settings: cultivation of the epithelial cells; cited from earlier work
corneal epithelial cells [5] = settings: cited from earlier work
[6] = system: epithelial cells of lenses; settings: cited from earlier work
[7] = MS 0.01 μM + diclofenac sodium 0.25 mM
[8] = MS 0.01 μM + diclofenac sodium 0.5 mM
[9] = MS 0.01 μM, diclofenac sodium 0 mM
[10] = MS 0.1 μM + diclofenac sodium 0.25 mM
[11] = MS 0.1 μM + diclofenac sodium 0.5 mM
[12] = MS 0.1 μM, diclofenac sodium 0 mM
[13] = MS 1 μM + diclofenac sodium 0.25 mM
[14] = MS 1 μM + diclofenac sodium 0.5 mM
[15] = MS 1 μM, diclofenac sodium 0 mM
[16] = MS 10 μM + diclofenac sodium 0.25 mM
[17] = MS 10 μM + diclofenac sodium 0.5 mM
[18] = MS 10 μM, diclofenac sodium 0 mM
[19] = MS 100 μM + diclofenac sodium 0.25 mM
[20] = MS 100 μM + diclofenac sodium 0.5 mM
[21] = MS 100 μM, diclofenac sodium 0 mM
[22] = added together with diclofenac sodium
[23] = diclofenac sodium 0.25 mM, MS 0 μM, 24 hours
[24] = diclofenac sodium 0.5 mM, MS 0 μM, 24 hours

For `CCCCC(C)(O)C/C=C/[C@H]1[C@H](O)CC(=O)[C@@H]1CCCCCCC(=O)OC` (mixture of isomers) [Misoprostol], the “cell survival rate (% of negative control)” value ([1]; MS 0.01 μM + diclofenac sodium 0.125 mM) was 91.1 ± 8.1%, the “cell survival rate (% of negative control)” value [1, 7] was 42.6 ± 4.9% and the “cell survival rate (% of negative control)” value [1, 8] was 33.1 ± 7.4%. The “cell survival rate (% of negative control)” value [1, 9] was 93.0 ± 14.8%, the “cell survival rate (% of negative control)” value ([1]; MS 0.1 μM + diclofenac sodium 0.125 mM) was 97.1 ± 4.5% and the “cell survival rate (% of negative control)” value [1, 10] was 45.0 ± 6.7%. The “cell survival rate (% of negative control)” value [1, 11] was 34.2 ± 9.3%, the “cell survival rate (% of negative control)” value [1, 12] was 98.6 ± 20.2% and the “cell survival rate (% of negative control)” value ([1]; MS 1 μM + diclofenac sodium 0.125 mM) was 96.4 ± 8.4%. The “cell survival rate (% of negative control)” value [1, 13] was 44.0 ± 6.4%, the “cell survival rate (% of negative control)” value [1, 14] was 34.4 ± 12.2% and the “cell survival rate (% of negative control)” value [1, 15] was 104.0 ± 26.6%. For the same compound, the “cell survival rate (% of negative control)” value ([1]; MS 10 μM + diclofenac sodium 0.125 mM) was 97.8 ± 9.6%, the “cell survival rate (% of negative control)” value [1, 16] was 46.4 ± 7.3% and the “cell survival rate (% of negative control)” value [1, 17] was 33.7 ± 9.4%. The “cell survival rate (% of negative control)” value [1, 18] was 99.5 ± 22.2%, the “cell survival rate (% of negative control)” value ([1]; MS 100 μM + diclofenac sodium 0.125 mM) was 55.4 ± 14.7% and the “cell survival rate (% of negative control)” value [1, 19] was 31.5 ± 7.4%. The “cell survival rate (% of negative control)” value [1, 20] was 28.7 ± 6.4%, the “cell survival rate (% of negative control)” value [1, 21] was 86.3 ± 12.0% and the “concentration at which MS per se had a cytotoxic effect” value ([1]; human, 24 h) was 100 µM. For the same compound, the “cell survival rate (% of negative control)” value [2, 7] was 69.9 ± 8.3%, the “cell survival rate (% of negative control)” value [2, 8] was 59.2 ± 10.4% and the “cell survival rate (% of negative control)” value ([2]; MS 0.01 μM + diclofenac sodium 1 mM) was 21.1 ± 9.9%. For the same compound, the “cell survival rate (% of negative control)” value [2, 9] was 87.2 ± 13.2%, the “cell survival rate (% of negative control)” value [2, 10] was 72.5 ± 12.6% and the “cell survival rate (% of negative control)” value [2, 11] was 61.6 ± 13.6%. The “cell survival rate (% of negative control)” value ([2]; MS 0.1 μM + diclofenac sodium 1 mM) was 22.2 ± 8.3%, the “cell survival rate (% of negative control)” value [2, 12] was 98.9 ± 20.4% and the “cell survival rate (% of negative control)” value [2, 13] was 73.1 ± 11.7%. For the same compound, the “cell survival rate (% of negative control)” value [2, 14] was 68.8 ± 17.1%, the “cell survival rate (% of negative control)” value ([2]; MS 1 μM + diclofenac sodium 1 mM) was 22.4 ± 8.0% and the “cell survival rate (% of negative control)” value [2, 15] was 99.1 ± 22.3%. The “cell survival rate (% of negative control)” value [2, 16] was 69.6 ± 10.5%, the “cell survival rate (% of negative control)” value [2, 17] was 68.4 ± 13.4% and the “cell survival rate (% of negative control)” value ([2]; MS 10 μM + diclofenac sodium 1 mM) was 22.6 ± 9.5%. The “cell survival rate (% of negative control)” value [2, 18] was 102.4 ± 24.5%, the “cell survival rate (% of negative control)” value [2, 19] was 31.7 ± 8.8% and the “cell survival rate (% of negative control)” value [2, 20] was 7.2 ± 4.5%. The “cell survival rate (% of negative control)” value ([2]; MS 100 μM + diclofenac sodium 1 mM) was −1.3 ± 1.3% and the “cell survival rate (% of negative control)” value [2, 21] was 99.2 ± 30.7%.

In the case of `CCCCC(C)(C)[C@H](O)/C=C/[C@H]1[C@H](O)CC(=O)[C@@H]1C/C=C\CCCC(=O)O` [16,16-dimethyl prostaglandin E2], the “effect on healing of the damaged epithelium” value (corneal epithelial cells [3]; added alone) is given as “does not show any effect on the healing of the damaged corneal epithelium” and the “effect on healing of the damaged epithelium” value (corneal epithelial cells [3]; [22]) is given as “does not show any effect on the healing of the damaged corneal epithelium”.

In the case of `O=C(O)Cc1ccccc1Nc1c(Cl)cccc1Cl` [Diclofenac Sodium, diclofenac sodium], the “effect on proliferation of the epithelium” value (corneal epithelial cells [4]) is given as “do not affect the proliferation of the epithelium”, the “cell survival rate (% of negative control)” value ([1]; diclofenac sodium 0.125 mM, MS 0 μM, 24 hours) is given as 74.0 ± 10.0% and the “cell survival rate (% of negative control)” value [1, 23] is given as 37.8 ± 5.7%. For the same compound, the “cell survival rate (% of negative control)” value [1, 24] was 29.3 ± 5.6%, the “effect on epithelium extension promoted by EGF” value (corneal epithelial cells [5]; added simultaneously with EGF) was “inhibit the epithelium extension-promoting effect due to the EGF” and the “effect on extension of the corneal epithelial cells” value (corneal epithelial cells [5]; agent alone) was “does not affect the extension of the corneal epithelial cells”. For the same compound, the “effect on proliferation of lens epithelial cells” value ([6]; 25, 50 and 100 μM added to the culture medium) was “control of the proliferation of the epithelial cells”, the “effect on healing of the damaged area of the epithelium” value (corneal epithelial cells [3]) was “would inhibit the damaged epithelium-healing” and the “effect on growth of the corneal epithelial cells” value ([2]; 0.25 mM, 0.5 mM or 1 mM, dose-dependent) was “inhibits the growth of the corneal epithelial cells”. The “cell survival rate (% of negative control)” value [2, 23] was 56.9 ± 8.7%, the “cell survival rate (% of negative control)” value [2, 24] was 48.2 ± 6.7% and the “cell survival rate (% of negative control)” value ([2]; diclofenac sodium 1 mM, MS 0 μM, 24 hours) was 17.3 ± 5.4%.

In the case of `CCCCC[C@H](O)/C=C/[C@H]1[C@H](O)CC(=O)[C@@H]1C/C=C\CCCC(=O)O` [PGE2, prostaglandin E2], the “effect on growth of lens epithelial cells” value ([6]; 1, 10, 50 and 100 μM added to the culture medium) is listed as “permits the growth of the epithelial cells”.

For `CC(C)OC(=O)CCC/C=C\C[C@@H]1[C@@H](CC[C@@H](O)CCc2ccccc2)[C@H](O)C[C@@H]1O` [latanoprost], the “effect on healing of the damaged epithelium” value (corneal epithelial cells [3]; added alone) is listed as “any such effect cannot be obtained” and the “effect on healing of the damaged epithelium” value (corneal epithelial cells [3]; [22]) is listed as “can recover the healing of the damaged epithelium”.

For EGF: epithelium growth factor (EGF), the “effect on healing of the damaged area of the epithelium” value (corneal epithelial cells [3]) is given as “would promote the healing of the wound on the damaged area”.
